In EP0936918B1, “COMBINATION THERAPY FOR TREATMENT OF ARTHRITIC DISEASES” (BRITISH BIOTECH PHARMACEUTICALS LIMITED, priority 1996, dated 1998):
Values belong to the molecule of their own block, whether it stands above or below them.

Tests used:
[1] = Twentyman 1992; cited from earlier work
[2] = system: adjuvant-induced arthritis; test: Rat adjuvant-induced arthritis model; type: in vivo, male Lewis rat
Protocol: Mean of 10 readings was recorded.
Drugs were formulated fresh for each administration.

[3] = Ex vivo bioassay of blood concentration after oral administration (fibroblast collagenase / 14C collagen read-out); parameters: species or system male Lewis rats; settings: 10mg/kg oral, suspension in PBS/Tween, with versus without CyA (0.3mg/kg); 0.5 to 24 hrs, n=6
Protocol: Compound 1(10mg/kg)±CyA (0.3mg/kg) [in PBS/0.01% Tween 80™] was administered to healthy male Lewis rats (as above). Blood samples (0.5ml into a syringe containing 0.1 ml acid citrate dextroset as anticoagulant) were removed from the ventro-lateral tail vein of the halothane anaestetised rat at t= prebleed, 0.5, 1, 2, 6 and 24 hrs. 3mls methanol was added to each blood sample, mixed and centrifuged at 3000 r.p.m. for 15 minutes (using Beckman GPKR centrifuge). 2.0ml of the methanol supematant was removed and evaporated dry. The pellet was redisolved in 200µl DMSO (dimethylsulphoxide). An aliquot of the solubilised pellet was assayed against fibroblast collagenase using ^14C collagen as substrate, as follows: 15µl fibroblast collagenase at suitable dilution. 100µl collagenase assay buffer* 10µl solubilised pellet 75µl ddH2O 100µl ^14C collagen † Acid citrate dextrose, pH4.5 (13.65g citric acid, 25g tri-sodium citrate & 20g d-glucose per litre of water) * (50mM Tris (pH 7.4), 5mM CaCl2, 0.05% Brij, 0.02% NaN3)
Samples were incubated overnight at 37°C and undigested substrate removed by centrifugation at 11,600 r.p.m. for 15 mins (using Heraeus Biofuge 15). […]
A calibration curve for the test compound of interest was run alongside the blood samples. The concentration of the test compound in the blood was then calculated from the calibration curve.

SMILES: C/C=C/C[C@@H](C)C(=O)[C@H]1C(=O)N[C@@H](C(C)C)C(=O)N(C)CC(=O)N(C)[C@@H](CC(C)C)C(=O)N[C@@H](C(C)C)C(=O)N(C)[C@@H](CC(C)C)C(=O)N[C@@H](C)C(=O)N[C@H](C)C(=O)N(C)[C@@H](CC(C)C)C(=O)N(C)[C@@H](CC(C)C)C(=O)N(C)[C@@H](C(C)C)C(=O)N1C [PSC-833]
potency relative to CyA [1]: approximately 10 fold

SMILES: CNC(=O)[C@H](Cc1ccccc1)NC(=O)[C@H](CC(C)C)[C@H](CSc1cccs1)C(=O)NO [Compound 2, [4-(N-Hydroxyamino)-2R-isobutyl-3S-(thiophenylthiomethyl)succinyl]-L-phenylalanine-N-methylamide]
synergy with cyclosporin A ([2]; Compound 2 at 5mg/kg ip, bid, with cyclosporin A at 0.3mg/kg ip): act in synergy

blood concentration of Compound 1 [3]: equivalent
SMILES: C=CC[C@H](C(=O)NO)[C@@H](CC(C)C)C(=O)N[C@H](C(=O)NC)C(C)(C)C [Compound 1, 3R-(2,2-Dimethyl-1S-methylcarbamoyl-propylcarbamoyl)-5-methyl-2S-2-propenyl-hexanohydroxamic acid]
reducing the paw volume (swelling) ([2]; Compound 1 at doses at or below 10mg/kg, po, bid (data not shown)): ineffective
effect on arthritis ([2]; given alone, po, bid: Compound 1 (10mg/ml), Cyclosporin A (0.3mg/ml)): very little or no effect
